Measured values taken from paper PMC7179653 (Antimicrobial Agents and Chemotherapy, 2020).

Assay: SAD study: safety and tolerability (TEAEs)
Format: in vivo, human
Settings: for TEAE: Abdominal pain / TEAE: Application site rash / TEAE: Chest discomfort / TEAE: Cough / TEAE: Fatigue / TEAE: Feeling hot / TEAE: Headache / TEAE: Nasal congestion / TEAE: Rhinitis / TEAE: Sinus tachycardia / ≥1 TEAE / ≥1 drug-related TEAE / ≥1 serious TEAE / ≥1 severe TEAE: n = 6
Method: The two studies were randomized, double-blind, placebo-controlled studies that enrolled participants into sequential treatment cohorts using a 3:1 active treatment-to-placebo randomization ratio.
A sentinel dosing strategy was employed in both studies. […] In all cohorts, escalation to the next dose occurred after a safety review of the previous cohort. In the MAD study, sentinel dosing was performed in part 3, wherein participants were evaluated for safety up to 24 h after administration of the first drug combination (or placebo) on day 3, prior to enrolling additional participants.
Safety assessments included monitoring of AEs, laboratory safety tests (hematology, serum chemistry, and urinalysis), 12-lead ECG (discrete recordings and 24-h Holter recording), and vital signs (blood pressure, pulse rate, and body temperature). In the SAD study, safety assessments were performed predose at screening, at day 1, postdose periodically on days 1, 2, and 7 (follow-up), and at early withdrawal, if relevant. Blood samples for pharmacokinetic profiling in the SAD study were collected on day 1 before the morning infusion and 0.5, 1, 1.5, 2, 3, 4, 6, 8, 12, and 24 h postinfusion start. In the MAD study, safety assessments were done predose at screening, at day 2, postdose periodically on days 1, 2, 4, 7, and 8, on days 13 to 15 (follow-up), and at early withdrawal, if relevant. In the MAD study, blood samples were collected on days 1 and 9 prior to the morning infusion and 0.5, 1, 1.5, 2, 3, 4, 6, 8, and 12 h (on day 9 only) postinfusion start. On all other days, a single predose sample was collected for pharmacokinetic evaluation prior to the morning infusion. Blood was collected into lithium-heparin tubes and stored at a nominal –80°C temperature until analysis.

## NCCONC(=O)[C@@H]1CC[C@@H]2CN1C(=O)N2OS(=O)(=O)O [Nacubactam]
SAD, 50 mg
  TEAE: Abdominal pain: 0 n/E
  TEAE: Application site rash: 0 n/E
  TEAE: Chest discomfort: 1/1
  TEAE: Cough: 0 n/E
  TEAE: Fatigue: 1/1
  TEAE: Feeling hot: 0 n/E
  TEAE: Headache: 0 n/E
  TEAE: Nasal congestion: 1/1
  TEAE: Rhinitis: 0 n/E
  TEAE: Sinus tachycardia: 0 n/E
  ≥1 TEAE: 2/3
  ≥1 drug-related TEAE: 0 n/E
  ≥1 serious TEAE: 0 n
  ≥1 severe TEAE: 0 n
SAD, 150 mg
  TEAE: Abdominal pain: 0 n/E
  TEAE: Application site rash: 0 n/E
  TEAE: Chest discomfort: 0 n/E
  TEAE: Cough: 1/1
  TEAE: Fatigue: 0 n/E
  TEAE: Feeling hot: 1/1
  TEAE: Headache: 0 n/E
  TEAE: Nasal congestion: 0 n/E
  TEAE: Rhinitis: 0 n/E
  TEAE: Sinus tachycardia: 1/1
  ≥1 TEAE: 1/3
  ≥1 drug-related TEAE: 0 n/E
  ≥1 serious TEAE: 0 n
  ≥1 severe TEAE: 0 n
SAD, 500 mg
  TEAE: Abdominal pain: 0 n/E
  TEAE: Application site rash: 0 n/E
  TEAE: Chest discomfort: 0 n/E
  TEAE: Cough: 0 n/E
  TEAE: Fatigue: 0 n/E
  TEAE: Feeling hot: 0 n/E
  TEAE: Headache: 1/1
  TEAE: Nasal congestion: 0 n/E
  TEAE: Rhinitis: 1/1
  TEAE: Sinus tachycardia: 0 n/E
  ≥1 TEAE: 2/2
  ≥1 drug-related TEAE: 0 n/E
  ≥1 serious TEAE: 0 n
  ≥1 severe TEAE: 0 n
SAD, 1,000 mg
  TEAE: Abdominal pain: 1/1
  TEAE: Application site rash: 0 n/E
  TEAE: Chest discomfort: 0 n/E
  TEAE: Cough: 0 n/E
  TEAE: Fatigue: 1/1
  TEAE: Feeling hot: 0 n/E
  TEAE: Headache: 0 n/E
  TEAE: Nasal congestion: 0 n/E
  TEAE: Rhinitis: 0 n/E
  TEAE: Sinus tachycardia: 0 n/E
  ≥1 TEAE: 2/2
  ≥1 drug-related TEAE: 0 n/E
  ≥1 serious TEAE: 0 n
  ≥1 severe TEAE: 0 n
SAD, 2,000 mg
  TEAE: Abdominal pain: 0 n/E
  TEAE: Application site rash: 0 n/E
  TEAE: Chest discomfort: 0 n/E
  TEAE: Cough: 0 n/E
  TEAE: Fatigue: 0 n/E
  TEAE: Feeling hot: 0 n/E
  TEAE: Headache: 1/1
  TEAE: Nasal congestion: 0 n/E
  TEAE: Rhinitis: 0 n/E
  TEAE: Sinus tachycardia: 0 n/E
  ≥1 TEAE: 1/1
  ≥1 drug-related TEAE: 1/1
  ≥1 serious TEAE: 0 n
  ≥1 severe TEAE: 0 n
SAD, all nacubactam doses, 30 participants
  total number of AEs: 11
SAD, all nacubactam doses, eight of the 30 participants
  participants reporting one or more AEs: 26.7%
